Read-outs that look alike come from different tables or passages of the source.
Experiments:
[1] = target: T1, 20S proteasome extracted from rat liver (PGPH) (Rattus norvegicus, UniProt P28073+Q9JHW0); test: inhibition of 20S proteasome, PGPH activity (fluorescent peptide); format: biochemical; conditions: for inhibition at 0.2 µM / inhibition at 2 µM / inhibition at 20 µM: rat liver 20S proteasome, 37° C., 1 h, read-out: inhibition rates (%) PGPH
T1 construct: 20S proteasome extracted from rat liver; from tissue; host or cells: rat liver
Protocol: (§1) 1 μg of 20S proteasome extracted from rat liver was incubated with a 100 μL solution containing various concentrations of the present compounds, 50 μM fluorescent peptides and 20 mM Tris-HCl at 37° C. for 1 h, respectively. […] 0.1% DMSO was used as a solvent control. Compared with the fluorescence of solvent control, an inhibition rate or IC50 value was calculated.

[2] = target: T2, 20S proteasome extracted from rat liver (CT-L) (Rattus norvegicus, UniProt P18421+P28075); test: inhibition of 20S proteasome, CT-L activity (fluorescent peptide); format: biochemical; conditions: for inhibition at 0.2 µM / inhibition at 2 µM / inhibition at 20 µM: rat liver 20S proteasome, 37° C., 1 h, read-out: inhibition rates (%) CT-L
T2 construct: 20S proteasome extracted from rat liver; from tissue; host or cells: rat liver
Protocol: as §1

[3] = target: T3, 20S proteasome extracted from rat liver (T-L) (Rattus norvegicus, UniProt P40112+Q9JHW0); test: inhibition of 20S proteasome, T-L activity (fluorescent peptide); format: biochemical; conditions: for inhibition at 0.2 µM / inhibition at 2 µM / inhibition at 20 µM: 37° C., 1 h, read-out: inhibition rates (%) T-L
T3 construct: 20S proteasome extracted from rat liver; from tissue; host or cells: rat liver
Protocol: as §1

BGC-823, liver cancer = test: preliminary anti-tumor screening in vitro, SRB method; format: cell-based; conditions: Homo sapiens, read-out: inhibition rates (%) BGC-823
Protocol: (§2) The test methods used in this test example are routine methods for anti-tumor activities test in pharmaceutical area, for example, referring to the following reference: (J. Immunol Method, 1983, 65, 55).
(§3) Test models: A: MTT method (Hela, human cervical carcinoma); B: SRB method (BGC-823, […]); C: SRB method (MCF-7, breast cancer); D: SRB method (A549, human lung cancer); E: SRB method (PC3M1E8, prostate cancer).
(§4) Inhibition rates of the compounds were measured under concentrations of 0.1 μM, 1 μM or 10 μM.

A549, human lung cancer = test: as above; format: cell-based; conditions: read-out: inhibition rates (%) A549
Protocol: as §2, §3, §4

MCF-7, breast cancer = test: as above; format: cell-based; conditions: Homo sapiens, read-out: inhibition rates (%) MCF-7; for inhibition at 0.1 µM: MCF7, 0.1 μM; for inhibition at 1 µM: MCF7, 1 μM; for inhibition at 10 µM: MCF7, 10 μM
Protocol: as §2, §3, §4

[4] = tested on: Hela, human cervical carcinoma; test: preliminary anti-tumor screening in vitro, MTT method; format: cell-based; conditions: read-out: inhibition rates (%) Hela
Protocol: as §2, §3, §4

SMILES: CC(C)C[C@H](NC(=O)[C@H](Cc1ccccc1)NC(=O)Nc1cccc(OCc2ccccc2)c1)B(O)O [Example 16, N-L-phenylalanyl-L-leucine borate-N′-(3-benzyloxy-phenylamine)-urea]
- inhibition at 0.2 µM [1]: -14.4%
- inhibition at 2 µM [1]: -2.93%
- inhibition at 20 µM [1]: 92.4%
- inhibition at 0.2 µM [2]: -14.6%
- inhibition at 2 µM [2]: 86.6%
- inhibition at 20 µM [2]: 94.5%
- inhibition at 0.2 µM ([3]; rat liver 20S proteasome): -2.89%
- inhibition at 2 µM ([3]; rat liver 20S proteasome): 12.3%
- inhibition at 20 µM ([3]; rat liver 20S proteasome): 62.2%
- inhibition at 0.1 µM (BGC-823, liver cancer): 6.01%
- inhibition at 1 µM (BGC-823, liver cancer): 34%
- inhibition at 10 µM (BGC-823, liver cancer): 48.7%
- inhibition at 0.1 µM (A549, human lung cancer): 5%
- inhibition at 1 µM (A549, human lung cancer): 36.2%
- inhibition at 10 µM (A549, human lung cancer): 65%
- inhibition at 0.1 µM (MCF-7, breast cancer): 6.62%
- inhibition at 1 µM (MCF-7, breast cancer): 27.2%
- inhibition at 10 µM (MCF-7, breast cancer): 51.4%
- inhibition at 0.1 µM [4]: 9.91%
- inhibition at 1 µM [4]: 34.1%
- inhibition at 10 µM [4]: 39.6%

SMILES: CC(C)C[C@H](NC(=O)[C@H](Cc1ccccc1)NC(=O)N[C@@H](Cc1ccccc1)C(=O)Nc1cnccn1)B(O)O [Example 24, N-L-phenylalanyl-L-leucine borate-N′-(pyrazin-2-ylcarbamoyl)-L-phenylalanine-urea]
- inhibition at 0.2 µM [1]: -21.8%
- inhibition at 2 µM [1]: -24.7%
- inhibition at 20 µM [1]: -24.2%
- inhibition at 0.2 µM [2]: 84.6%
- inhibition at 2 µM [2]: 95.7%
- inhibition at 20 µM [2]: 97.4%
- inhibition at 0.2 µM ([3]; rat liver 20S proteasome): -0.926%
- inhibition at 2 µM ([3]; rat liver 20S proteasome): 43.5%
- inhibition at 20 µM ([3]; rat liver 20S proteasome): 90.2%
- inhibition at 0.1 µM (BGC-823, liver cancer): 36.3%
- inhibition at 1 µM (BGC-823, liver cancer): 45.6%
- inhibition at 10 µM (BGC-823, liver cancer): 51.1%
- inhibition at 0.1 µM (A549, human lung cancer): 29.5%
- inhibition at 1 µM (A549, human lung cancer): 61.5%
- inhibition at 10 µM (A549, human lung cancer): 70.2%
- inhibition at 0.1 µM (MCF-7, breast cancer): 19.7%
- inhibition at 1 µM (MCF-7, breast cancer): 33.3%
- inhibition at 10 µM (MCF-7, breast cancer): 45.1%
- inhibition at 0.1 µM [4]: 24.7%
- inhibition at 1 µM [4]: 45.3%
- inhibition at 10 µM [4]: 48.6%

SMILES: CC(C)C[C@H](NC(=O)N[C@H](Cc1ccccc1)C(=O)Nc1cnccn1)B(O)O [Example 10, N-L-leucine borate-N′-(pyrazin-2-ylcarbamoyl)-D-phenylalanine-urea]
- inhibition at 0.2 µM [1]: 19%
- inhibition at 2 µM [1]: 79.8%
- inhibition at 20 µM [1]: 96%
- inhibition at 0.2 µM [2]: -4.19%
- inhibition at 2 µM [2]: 47.8%
- inhibition at 20 µM [2]: 89%
- inhibition at 0.2 µM ([3]; rat liver 20S proteasome): -12.3%
- inhibition at 2 µM ([3]; rat liver 20S proteasome): -5.93%
- inhibition at 20 µM ([3]; rat liver 20S proteasome): 17.4%
- inhibition at 0.1 µM (BGC-823, liver cancer): 4.44%
- inhibition at 1 µM (BGC-823, liver cancer): 7.38%
- inhibition at 10 µM (BGC-823, liver cancer): 16.4%
- inhibition at 0.1 µM (A549, human lung cancer): 3.45%
- inhibition at 1 µM (A549, human lung cancer): 14.6%
- inhibition at 10 µM (A549, human lung cancer): 25%
- inhibition at 0.1 µM (MCF-7, breast cancer): 8.1%
- inhibition at 1 µM (MCF-7, breast cancer): 12.7%
- inhibition at 10 µM (MCF-7, breast cancer): 16%
- inhibition at 0.1 µM [4]: 11.8%
- inhibition at 1 µM [4]: 14.8%
- inhibition at 10 µM [4]: 27%

SMILES: CC(C)C[C@H](NC(=O)N[C@@H](Cc1ccccc1)C(=O)NCC1CCCO1)B(O)O (stereo partly drawn) [Example 3, N-L-leucine borate-N′-(tetrahydrofuran-2-ylmethylcarbamoyl)-L-phenylalanine-urea]
- inhibition at 0.2 µM [1]: 7.38%
- inhibition at 2 µM [1]: 40.8%
- inhibition at 20 µM [1]: 88.4%
- inhibition at 0.2 µM [2]: -20.8%
- inhibition at 2 µM [2]: 1.91%
- inhibition at 20 µM [2]: 68.6%
- inhibition at 0.2 µM ([3]; rat liver 20S proteasome): 16.9%
- inhibition at 2 µM ([3]; rat liver 20S proteasome): 18.5%
- inhibition at 20 µM ([3]; rat liver 20S proteasome): 35.9%
- inhibition at 0.1 µM (BGC-823, liver cancer): 4.73%
- inhibition at 1 µM (BGC-823, liver cancer): -4.01%
- inhibition at 10 µM (BGC-823, liver cancer): 0.96%
- inhibition at 0.1 µM (A549, human lung cancer): 5.55%
- inhibition at 1 µM (A549, human lung cancer): 16.6%
- inhibition at 10 µM (A549, human lung cancer): 14.9%
- inhibition at 0.1 µM (MCF-7, breast cancer): 3.24%
- inhibition at 1 µM (MCF-7, breast cancer): 9.52%
- inhibition at 10 µM (MCF-7, breast cancer): 9.37%
- inhibition at 0.1 µM [4]: 10.2%
- inhibition at 1 µM [4]: 14.2%
- inhibition at 10 µM [4]: 19.2%

SMILES: CC(C)C[C@H](NC(=O)[C@H](Cc1ccccc1)NC(=O)NCc1cc(Cl)ccc1Cl)B(O)O [Example 31, N-L-phenylalanyl-L-leucine borate-N′-2,5-dichloro-benzylamine-urea]
- IC50 [1]: 480 nM
- IC50 [2]: 40 nM
- IC50 [3]: 0.53 µM

SMILES: Cc1cccc(CNC(=O)N[C@@H](Cc2ccccc2)C(=O)N[C@@H](CC(C)C)B(O)O)c1C [Example 30, N-L-phenylalanyl-L-leucine borate-N′-2,3-dimethyl-benzylamine-urea]
- IC50 [1]: 130 nM
- IC50 [2]: 4 nM
- IC50 [3]: 0.34 µM

SMILES: CC(C)C[C@H](NC(=O)[C@H](Cc1ccccc1)NC(=O)N1CCc2ccccc2C1=O)B(O)O [Example 37, N-(1-oxo-1,2,3,4-dihydroisoquinolin-2-ylformyl)-L-phenylalanyl-L-leucine borate]
- IC50 [1]: 1240 nM
- IC50 [2]: 660 nM
- IC50 ([3]; rat liver 20S proteasome, read-out: IC50 (μM) T-L): > 20 µM

SMILES: CC(C)C[C@H](NC(=O)N[C@@H](Cc1ccccc1)C(=O)N[C@@H](CC(C)C)C(=O)Nc1cnccn1)B(O)O [Example 12, N-L-leucine borate-N′-(pyrazin-2-ylcarbamoyl)-L-leucyl-L-phenylalanine-urea]
- inhibition at 0.2 µM [1]: 9.76%
- inhibition at 2 µM [1]: 73.2%
- inhibition at 20 µM [1]: 96.7%
- inhibition at 0.2 µM [2]: 63.3%
- inhibition at 2 µM [2]: 93.4%
- inhibition at 20 µM [2]: 95.8%
- inhibition at 0.2 µM ([3]; rat liver 20S proteasome): -7.93%
- inhibition at 2 µM ([3]; rat liver 20S proteasome): 34.7%
- inhibition at 20 µM ([3]; rat liver 20S proteasome): 67.8%
- inhibition at 0.1 µM (BGC-823, liver cancer): 6.01%
- inhibition at 1 µM (BGC-823, liver cancer): 36.3%
- inhibition at 10 µM (BGC-823, liver cancer): 50.2%
- inhibition at 0.1 µM (A549, human lung cancer): 1.55%
- inhibition at 1 µM (A549, human lung cancer): 45.5%
- inhibition at 10 µM (A549, human lung cancer): 69.7%
- inhibition at 0.1 µM (MCF-7, breast cancer): 1.77%
- inhibition at 1 µM (MCF-7, breast cancer): 26.3%
- inhibition at 10 µM (MCF-7, breast cancer): 50.8%
- inhibition at 0.1 µM [4]: 12%
- inhibition at 1 µM [4]: 35%
- inhibition at 10 µM [4]: 46%

SMILES: CC(C)C[C@H](NC(=O)N[C@@H](Cc1ccccc1)C(=O)N[C@@H](CC(C)C)C(=O)Nc1cnccn1)B1OC(C)(C)C(C)(C)O1 [Example 13, N-L-leucine borate pinacol ester-N′-(pyrazin-2-ylcarbamoyl)-L-leucyl-L-phenylalanine-urea]
- inhibition at 0.2 µM [1]: 5.28%
- inhibition at 2 µM [1]: 53.4%
- inhibition at 20 µM [1]: 96.8%
- inhibition at 0.2 µM [2]: 45.4%
- inhibition at 2 µM [2]: 91.3%
- inhibition at 20 µM [2]: 95.4%
- inhibition at 0.2 µM ([3]; rat liver 20S proteasome): -3.11%
- inhibition at 2 µM ([3]; rat liver 20S proteasome): 13.8%
- inhibition at 20 µM ([3]; rat liver 20S proteasome): 49.4%
- inhibition at 0.1 µM (BGC-823, liver cancer): 3.66%
- inhibition at 1 µM (BGC-823, liver cancer): 17.8%
- inhibition at 10 µM (BGC-823, liver cancer): 40%
- inhibition at 0.1 µM (A549, human lung cancer): -9.11%
- inhibition at 1 µM (A549, human lung cancer): 23.5%
- inhibition at 10 µM (A549, human lung cancer): 50.5%
- inhibition at 0.1 µM (MCF-7, breast cancer): -3.69%
- inhibition at 1 µM (MCF-7, breast cancer): 8.39%
- inhibition at 10 µM (MCF-7, breast cancer): 20%
- inhibition at 0.1 µM [4]: 7.02%
- inhibition at 1 µM [4]: 20.2%
- inhibition at 10 µM [4]: 37.7%

SMILES: CC(C)C[C@H](NC(=O)[C@H](Cc1ccccc1)NC(=O)NCc1ccco1)B(O)O [Example 33, N-L-phenylalanyl-L-leucine borate-N′-furan-2-ylmethylamine-urea]
- IC50 [1]: 80 nM
- IC50 [2]: 20 nM
- IC50 [3]: 5.32 µM

SMILES: CC(C)C[C@H](NC(=O)[C@H](Cc1ccccc1)NC(=O)NCCc1ccccc1)B(O)O [Example 25, N-L-phenylalanyl-L-leucine borate-N′-phenylethylamine-urea]
- IC50 [1]: 240 nM
- IC50 [2]: 20 nM
- IC50 [3]: 1.05 µM

SMILES: CC(C)C[C@H](NC(=O)[C@H](Cc1ccccc1)NC(=O)NCc1cnccn1)B(O)O [Example 2, N-L-phenylalanyl-L-leucine borate-N′-pyrazin-2-ylmethylamine-urea]
- IC50 [1]: 790 nM
- IC50 [2]: 50 nM
- IC50 [3]: 11.4 µM

SMILES: CC(C)C[C@H](NC(=O)[C@H](Cc1ccccc1)NC(=O)NCc1cccc([N+](=O)[O-])c1)B(O)O [Example 36, N-L-phenylalanyl-L-leucine borate-N′-3-nitro-benzylamine-urea]
- IC50 [1]: 140 nM
- IC50 [2]: 3 nM
- IC50 [3]: 0.19 µM

SMILES: CC(C)C[C@H](NC(=O)[C@H](Cc1ccccc1)NC(=O)N(C)Cc1ccccc1)B(O)O [Example 29, N-L-phenylalanyl-L-leucine borate-N′—(N-methyl-benzylamine)-urea]
- IC50 [2]: 2 nM
- IC50 [3]: 0.19 µM
